Target: transferrin receptor (hTfR) (Homo sapiens, UniProt P02786)
Assay: Intermolecular interaction evaluation test between transferrin receptor (hTfR) and peptide-nucleic acid conjugate using surface plasmon resonance (SPR)
Type: binding
Experimental: Intermolecular interaction evaluation test between transferrin receptor (hTfR) and peptide using surface plasmon resonance (SPR)
The various synthesized peptide-nucleic acid conjugates were tested for intermolecular interaction by surface plasmon resonance (SPR) of the peptide-nucleic acid conjugate with transferrin receptor (hTfR) using the method shown below. The specific test method is shown below.
NTA sensor chip (Global Life Science Technologies Japan Co., Ltd.) was inserted into Biacore T200 (Global Life Science Technologies Japan Co., Ltd.), prime operation was performed three times with running buffer: 10 mM HEPES pH 8.0 (Nacalai Tesque Co., Ltd.), 150 mM NaCl (Nacalai Tesque Co., Ltd.), 0.05% Tween 20 (Nacalai Tesque Co., Ltd.), 0.1% BSA (SIGMA-ALDRICH), and 1.0% DMSO (FUJIFILM Wako Pure Chemical Corporation), and equilibrated at a flow rate of 30 μL/min. 350 mM EDTA solution was reacted for 60 seconds at a flow rate of 10 μL/min, 0.5 mM NiCl2 solution (Kishida Chemical) was reacted for 60 seconds at a flow rate of 10 μL/min, and the NTA sensor chip was washed with 3 mM EDTA solution (Nacalai Tesque Co., Ltd.) for 60 seconds at a flow rate of 10 μL/min. After mixing 50 μL each of […] EDC solution (Global Life Science Technologies Japan Co., Ltd.) and […] NHS solution (Global Life Science Technologies Japan Co., Ltd.), the mixture was reacted for 420 seconds at a flow rate of 10 μL/min. 150 μL of a 0.5 μM hTfR solution was prepared by diluting with a running buffer and reacted for 300 seconds at a flow rate of 10 μL/min to immobilize hTfR on the NTA sensor chip. After immobilization, capping was performed by reacting with a 1.0 M ethanolamine aqueous solution (Global Life Science Technologies Japan Co., Ltd.) at a flow rate of 10 μL/min for 420 seconds. A peptide-nucleic acid conjugate solution adjusted to 10 mM in DMSO solution was diluted with running buffer to a final concentration of 10 μM peptide-nucleic acid conjugate solution, and 100 nM, 50 nM, 25 nM, 10 nM, 5 nM peptide-nucleic acid conjugate solutions were prepared. Using the aforementioned samples, the kinetics of the peptide against hTfR was obtained by SPR measurement.
The kinetics evaluation model was Single Cycle Kinetics, and curve fitting was performed using Biacore T200 Evaluation Software Version 3.0 (Global Life Science Technologies Japan Co., Ltd.). The obtained sensorgram was subjected to curve fitting using the least squares method, and the binding of the peptide-nucleic acid conjugate to hTfR was evaluated by determining the KD value.

Chain of transferrin receptor (hTfR) (P02786 whole entry): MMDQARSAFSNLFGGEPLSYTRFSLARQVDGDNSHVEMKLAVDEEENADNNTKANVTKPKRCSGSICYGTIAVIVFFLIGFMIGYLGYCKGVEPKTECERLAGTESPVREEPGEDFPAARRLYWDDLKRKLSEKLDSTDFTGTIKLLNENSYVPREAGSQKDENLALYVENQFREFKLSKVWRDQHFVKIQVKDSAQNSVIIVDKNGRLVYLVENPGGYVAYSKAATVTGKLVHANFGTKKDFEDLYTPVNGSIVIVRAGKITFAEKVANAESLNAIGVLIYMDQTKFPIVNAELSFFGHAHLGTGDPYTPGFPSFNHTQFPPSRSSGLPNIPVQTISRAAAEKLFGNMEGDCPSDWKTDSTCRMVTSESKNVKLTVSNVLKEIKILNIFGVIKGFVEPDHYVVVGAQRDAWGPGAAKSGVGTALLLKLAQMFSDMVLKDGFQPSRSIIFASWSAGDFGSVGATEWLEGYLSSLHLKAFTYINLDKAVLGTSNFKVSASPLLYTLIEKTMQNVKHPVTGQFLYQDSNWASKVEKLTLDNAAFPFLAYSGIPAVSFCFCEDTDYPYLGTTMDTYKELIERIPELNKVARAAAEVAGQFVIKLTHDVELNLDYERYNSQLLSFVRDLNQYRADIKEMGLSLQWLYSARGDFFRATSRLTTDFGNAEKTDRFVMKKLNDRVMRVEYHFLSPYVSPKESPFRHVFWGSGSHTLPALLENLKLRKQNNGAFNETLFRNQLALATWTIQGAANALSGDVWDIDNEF

CC[C@H](C)[C@@H]1NC(=O)[C@H](Cc2ccc(O)cc2)NC(=O)[C@H](Cc2ccc(O)cc2)NC(=O)[C@H](CC(N)=O)NC(=O)[C@H](Cc2c[nH]c3ccccc23)NC(=O)[C@H](C(C)C)NC(=O)[C@H](Cc2ccccc2)N(C)C(=O)[C@H](C(C)C)NC(=O)[C@H](C)NC(=O)CSC[C@@H](C(=O)NCC(=O)N[C@@H](CCCCn2cc(CCC(=O)NCCOCCOCC(=O)N[C@@H](CCCNC(=N)N)C(=O)N[C@@H](CCCNC(=N)N)C(=O)N[C@@H](CCCNC(=N)N)C(=O)NCC(=O)N3C[C@@H](COP(=O)(N(C)C)N4C[C@@H](COP(=O)(N(C)C)N5C[C@@H](COP(=O)(N(C)C)N6C[C@@H](COP(=O)(N(C)C)N7C[C@@H](COP(=O)(N(C)C)N8C[C@@H](COP(=O)(N(C)C)N9C[C@@H](COP(=O)(N(C)C)N%10C[C@@H](COP(=O)(N(C)C)N%11C[C@@H](COP(=O)(N(C)C)N%12C[C@@H](COP(=O)(N(C)C)N%13C[C@@H](COP(=O)(N(C)C)N%14C[C@@H](COP(=O)(N(C)C)N%15C[C@@H](COP(=O)(N(C)C)N%16C[C@@H](COP(=O)(N(C)C)N%17C[C@@H](COP(=O)(N(C)C)N%18C[C@@H](COP(=O)(N(C)C)N%19C[C@@H](COP(=O)(N(C)C)N%20C[C@@H](COP(=O)(N(C)C)N%21C[C@@H](COP(=O)(N(C)C)N%22C[C@@H](COP(=O)(N(C)C)N%23C[C@@H](COP(=O)(N(C)C)N%24C[C@@H](COP(=O)(N(C)C)N%25C[C@@H](COP(=O)(N(C)C)N%26C[C@@H](COP(=O)(N(C)C)N%27C[C@@H](COP(=O)(N(C)C)N(C)CC(N)=O)O[C@@H](n%28cnc%29c(=O)[nH]c(N)nc%29%28)C%27)O[C@@H](n%27cnc%28c(=O)[nH]c(N)nc%28%27)C%26)O[C@@H](n%26ccc(N)nc%26=O)C%25)O[C@@H](n%25ccc(N)nc%25=O)C%24)O[C@@H](n%24cnc%25c(N)ncnc%25%24)C%23)O[C@@H](n%23cnc%24c(N)ncnc%24%23)C%22)O[C@@H](n%22cnc%23c(N)ncnc%23%22)C%21)O[C@@H](n%21ccc(N)nc%21=O)C%20)O[C@@H](n%20ccc(N)nc%20=O)C%19)O[C@@H](n%19cc(C)c(=O)[nH]c%19=O)C%18)O[C@@H](n%18ccc(N)nc%18=O)C%17)O[C@@H](n%17cnc%18c(=O)[nH]c(N)nc%18%17)C%16)O[C@@H](n%16cnc%17c(=O)[nH]c(N)nc%17%16)C%15)O[C@@H](n%15ccc(N)nc%15=O)C%14)O[C@@H](n%14cc(C)c(=O)[nH]c%14=O)C%13)O[C@@H](n%13cc(C)c(=O)[nH]c%13=O)C%12)O[C@@H](n%12cnc%13c(N)ncnc%13%12)C%11)O[C@@H](n%11ccc(N)nc%11=O)C%10)O[C@@H](n%10ccc(N)nc%10=O)C9)O[C@@H](n9cc(C)c(=O)[nH]c9=O)C8)O[C@@H](n8cnc9c(=O)[nH]c(N)nc98)C7)O[C@@H](n7cnc8c(N)ncnc87)C6)O[C@@H](n6cnc7c(N)ncnc76)C5)O[C@@H](n5cnc6c(N)ncnc65)C4)O[C@@H](n4cc(C)c(=O)[nH]c4=O)C3)nn2)C(N)=O)NC(=O)[C@H](Cc2ccc(O)cc2)N(C)C(=O)[C@H](Cc2ccc(O)cc2)NC(=O)[C@H](CCCNC(=N)N)NC(=O)[C@H](CCCNC(=N)N)NC(=O)[C@H]([C@@H](C)CC)NC1=O (some centres unmarked) [Example 60] showed a Kd of less than 100 nM.

For CC[C@H](C)[C@@H]1NC(=O)[C@H](Cc2ccc(O)cc2)NC(=O)[C@H](Cc2ccc(O)cc2)NC(=O)[C@H](CC(N)=O)NC(=O)[C@H](Cc2c[nH]c3ccccc23)NC(=O)[C@H](C(C)C)NC(=O)[C@H](Cc2ccccc2)N(C)C(=O)[C@H](C(C)C)NC(=O)[C@H](C)NC(=O)CSC[C@@H](C(=O)NCC(=O)N[C@@H](CCCCn2cc(CCC(=O)NCCOCCOCC(=O)N[C@@H](CCCCN)C(=O)N[C@@H](CCCCN)C(=O)N[C@@H](CCCCN)C(=O)NCC(=O)N3C[C@@H](COP(=O)(N(C)C)N4C[C@@H](COP(=O)(N(C)C)N5C[C@@H](COP(=O)(N(C)C)N6C[C@@H](COP(=O)(N(C)C)N7C[C@@H](COP(=O)(N(C)C)N8C[C@@H](COP(=O)(N(C)C)N9C[C@@H](COP(=O)(N(C)C)N%10C[C@@H](COP(=O)(N(C)C)N%11C[C@@H](COP(=O)(N(C)C)N%12C[C@@H](COP(=O)(N(C)C)N%13C[C@@H](COP(=O)(N(C)C)N%14C[C@@H](COP(=O)(N(C)C)N%15C[C@@H](COP(=O)(N(C)C)N%16C[C@@H](COP(=O)(N(C)C)N%17C[C@@H](COP(=O)(N(C)C)N%18C[C@@H](COP(=O)(N(C)C)N%19C[C@@H](COP(=O)(N(C)C)N%20C[C@@H](COP(=O)(N(C)C)N%21C[C@@H](COP(=O)(N(C)C)N%22C[C@@H](COP(=O)(N(C)C)N%23C[C@@H](COP(=O)(N(C)C)N%24C[C@@H](COP(=O)(N(C)C)N%25C[C@@H](COP(=O)(N(C)C)N%26C[C@@H](COP(=O)(N(C)C)N%27C[C@@H](COP(=O)(N(C)C)N(C)CC(N)=O)O[C@@H](n%28cnc%29c(=O)[nH]c(N)nc%29%28)C%27)O[C@@H](n%27cnc%28c(=O)[nH]c(N)nc%28%27)C%26)O[C@@H](n%26ccc(N)nc%26=O)C%25)O[C@@H](n%25ccc(N)nc%25=O)C%24)O[C@@H](n%24cnc%25c(N)ncnc%25%24)C%23)O[C@@H](n%23cnc%24c(N)ncnc%24%23)C%22)O[C@@H](n%22cnc%23c(N)ncnc%23%22)C%21)O[C@@H](n%21ccc(N)nc%21=O)C%20)O[C@@H](n%20ccc(N)nc%20=O)C%19)O[C@@H](n%19cc(C)c(=O)[nH]c%19=O)C%18)O[C@@H](n%18ccc(N)nc%18=O)C%17)O[C@@H](n%17cnc%18c(=O)[nH]c(N)nc%18%17)C%16)O[C@@H](n%16cnc%17c(=O)[nH]c(N)nc%17%16)C%15)O[C@@H](n%15ccc(N)nc%15=O)C%14)O[C@@H](n%14cc(C)c(=O)[nH]c%14=O)C%13)O[C@@H](n%13cc(C)c(=O)[nH]c%13=O)C%12)O[C@@H](n%12cnc%13c(N)ncnc%13%12)C%11)O[C@@H](n%11ccc(N)nc%11=O)C%10)O[C@@H](n%10ccc(N)nc%10=O)C9)O[C@@H](n9cc(C)c(=O)[nH]c9=O)C8)O[C@@H](n8cnc9c(=O)[nH]c(N)nc98)C7)O[C@@H](n7cnc8c(N)ncnc87)C6)O[C@@H](n6cnc7c(N)ncnc76)C5)O[C@@H](n5cnc6c(N)ncnc65)C4)O[C@@H](n4cc(C)c(=O)[nH]c4=O)C3)nn2)C(N)=O)NC(=O)[C@H](Cc2ccc(O)cc2)N(C)C(=O)[C@H](Cc2ccc(O)cc2)NC(=O)[C@H](CCCNC(=N)N)NC(=O)[C@H](CCCNC(=N)N)NC(=O)[C@H]([C@@H](C)CC)NC1=O (some centres unmarked) [Example 61], the Kd was less than 100 nM.

From patent US20240390508A1, “HUMAN TRANSFERRIN RECEPTOR BINDING PEPTIDE-DRUG CONJUGATE” (priority 2021, published 2024)
